# Results published in publication PMC3739763 (PLoS ONE, 2013).
# Like-named read-outs stand apart in the source and are kept apart here.
# Tests used:
# [1] = target: T1, Human serum albumin (HSA) (Homo sapiens, UniProt P02768); assay: Steady state fluorescence quenching of HSA by HA; type: binding; conditions: for KSV (Stern-Volmer quenching constant) / n (binding sites): pH 7.4, HSA 5 µM; for TΔS°: van't Hoff
# T1 construct: I (residues 1–195), II (196–383), III (384–585); purchased Sigma Aldrich A1887
# T1 sequence (P02768 25-609): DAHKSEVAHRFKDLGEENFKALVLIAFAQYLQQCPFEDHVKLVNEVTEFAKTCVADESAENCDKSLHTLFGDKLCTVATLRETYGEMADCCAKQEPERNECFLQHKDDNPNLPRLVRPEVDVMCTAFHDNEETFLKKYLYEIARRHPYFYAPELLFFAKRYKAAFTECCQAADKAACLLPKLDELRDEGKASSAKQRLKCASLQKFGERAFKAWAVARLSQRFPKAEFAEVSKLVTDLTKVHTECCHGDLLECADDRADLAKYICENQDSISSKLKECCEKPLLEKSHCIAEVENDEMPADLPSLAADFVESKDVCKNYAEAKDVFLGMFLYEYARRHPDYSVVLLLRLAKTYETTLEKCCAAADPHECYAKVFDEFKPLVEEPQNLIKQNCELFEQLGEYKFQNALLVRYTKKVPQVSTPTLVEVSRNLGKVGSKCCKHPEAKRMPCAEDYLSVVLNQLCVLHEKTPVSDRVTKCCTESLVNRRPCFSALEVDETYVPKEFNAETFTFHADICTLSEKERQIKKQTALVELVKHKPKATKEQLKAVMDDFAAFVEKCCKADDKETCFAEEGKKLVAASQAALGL
# Description: Fluorescence emission spectra were recorded in range of 300–400 nm on a Shimadzu 5301PC fluorescence spectrophotometer equipped with water circulator (Julabo Eyela) at excitation wavelength of 295 nm. Both the excitation and emission slits were set at 3 nm. […] Respective blanks were subtracted. […] Furthermore if a quencher, Q, form complex, Q n B, with protein B and have ‘n’ multiple (equivalent and independent) binding sites then quenching reaction is often represented as: [drawing 5] (2) and its binding constant (Kb ) is given by equation 3:[18]
# [drawing 6] (3) If the total amount of protein (with and without bound Q) is [B o], then [drawing 7] (4) [drawing 8] (5) where [B] is the concentration of the unbound protein. The fluorescence intensity is proportional to the protein concentration as described below: [drawing 9] (6) then, relationship between the fluorescence intensity and unbound protein is expressed as:
# [drawing 10] (7) So, if the formation of a nonfluorescent fluorophore–quencher complex occurs, then, the value of K b can be obtained by using equation 7.
# [2] = target: T1, Human serum albumin (HSA); assay: Binding displacement measurement using site markers (fluorescence, Stern-Volmer); conditions: protein:marker 1:1
# Description: Different site markers warfarin (WAR) for site I and diazepam (DIA) for site II [19], [20] were used for performing displacement experiments. […] The fluorescence emission spectra were recorded as mentioned in fluorescence measurements and the binding constant values of drug–protein–marker were evaluated using Stern–Volmer equation.
# [3] = target: T1, Human serum albumin (HSA); assay: Isothermal titration calorimetry (ITC), sequential model of two binding sites; conditions: for van't Hoff enthalpy: equation 12; for ΔCP (change in heat capacity): 25-37 °C
# Description: Prior to the titration experiment, all solutions were degassed properly on a thermovac. The 1.44 mL sample and reference cell of the calorimeter were loaded with HSA and 20 mM sodium phosphate buffer (pH 7.4), respectively. […] The reference power was set at 16 µcal s^−1. […] Heats of dilution for the ligand and protein were subtracted from the integrated data before curve fitting. The data were fitted and analyzed with a sequential model of two binding sites using Origin 7.0 provided with the MicroCal instrument. Association constant (K b) and standard enthalpy change (ΔH°) were directly obtained after fitting while ΔG° was calculated from equation 8. The ΔS ^o was calculated using the equation: [drawing 13] (10) and change in specific heat capacity can be calculated from the equation:
# [drawing 14] (11) Further the standard van’t Hoff enthalpy [drawing 15] at each temperature was calculated using equation: [drawing 16] (12) here, K(T1) and K(T2) are the values of binding constant at temperatures T 1 and T 2 respectively.
# [4] = target: T1, Human serum albumin (HSA); assay: Differential scanning calorimetry (DSC) thermostability of HSA in presence of HA; type: binding
# Description: The differential scanning calorimetric measurements were carried out using VP-DSC microcalorimeter (MicroCal, Northampton, MA). The buffer and protein solutions were degassed under mild vacuum prior to the experiment. Samples were prepared in 20 mM sodium phosphate buffer, pH 7.4. […] 1∶0, 1∶5, and 1∶10 were performed from 25 to 90°C at a scan rate of 0.5°C/min. Data were analyzed using Origin software provided with the instrument to obtain the temperature at the midpoint of the unfolding transition (T m) and calorimetric enthalpy (ΔH°).
# [5] = target: T1, Human serum albumin (HSA); assay: Esterase-like activity of HSA toward p-NPA in presence of HA; type: biochemical
# [6] = parameters: method as in PMID 12675874; conditions: cited from earlier work
# [7] = parameters: method as in PMID 1643710, PMID 11721007; conditions: cited from earlier work
smiles,measurement,setting,value
"O=C(O)CNC(=O)c1ccccc1 [HA, hippuric acid]",k q (bimolecular rate constant),[1]; 25 °C,(1.36±0.06 ) ×10^12 M^−1 s^−1
same,ΔG°,[1]; 25 °C,-5.21 ± 0.02 kcal/mol
same,KSV (Stern-Volmer quenching constant),[1]; 25 °C,(7.80±0.36) ×10^3 M^−1
same,n (binding sites),[1]; 25 °C,0.98±0.02
same,TΔS°,[1]; 25 °C,-23.48 ± 0.24 kcal/mol
same,k q (bimolecular rate constant),[1]; 30 °C,(5.77±0.03 ) ×10^11 M^−1 s^−1
same,ΔG°,[1]; 30 °C,-4.88 ± 0.06 kcal/mol
same,KSV (Stern-Volmer quenching constant),[1]; 30 °C,(3.30±0.02) ×10^3 M^−1
same,n (binding sites),[1]; 30 °C,0.99±0.01
same,TΔS°,[1]; 30 °C,-23.88 ± 0.24 kcal/mol
same,k q (bimolecular rate constant),[1]; 37 °C,(2.29±0.01 ) ×10^11 M^−1 s^−1
same,ΔG°,[1]; 37 °C,-4.28 ± 0.01 kcal/mol
same,KSV (Stern-Volmer quenching constant),[1]; 37 °C,(1.31±0.08) ×10^3 M^−1
same,n (binding sites),[1]; 37 °C,0.97±0.02
same,TΔS°,[1]; 37 °C,-24.43 ± 0.25 kcal/mol
same,K b (order of magnitude),"[1]; spectroscopic results, single site",~10^3
same,K sv of HSA-HA in presence of site marker,[2]; in presence of DIA (site II marker),(2.03±0.03)× 10^3 M^−1
same,K sv of HSA-HA in presence of site marker,[2]; in presence of WAR (site I marker),(2.74±0.04)×10^3 M^−1
same,van't Hoff enthalpy,"[3]; 25 °C, high affinity site",-11.98 kcal/mol
same,van't Hoff enthalpy,"[3]; 25 °C, low affinity site",-24.69 kcal/mol
same,ΔG°,"[3]; High affinity site, 25 °C",-6.05 ± 0.10 kcal/mol
same,ΔH°,"[3]; High affinity site, 25 °C",-4.41 ± 0.46 kcal/mol
same,TΔS°,"[3]; High affinity site, 30 °C",0.76 ± 0.06 kcal/mol
same,ΔG°,"[3]; High affinity site, 30 °C",-5.94 ± 0.01 kcal/mol
same,ΔH°,"[3]; High affinity site, 30 °C",-5.18 ± 0.07 kcal/mol
same,TΔS°,"[3]; High affinity site, 37 °C",-0.20 ± 0.01 kcal/mol
same,ΔG°,"[3]; High affinity site, 37 °C",-5.93 ± 0.02 kcal/mol
same,ΔH°,"[3]; High affinity site, 37 °C",-6.14 ± 0.15 kcal/mol
same,TΔS°,"[3]; Low affinity site, 25 °C",-2.88 ± 0.40 kcal/mol
same,ΔG°,"[3]; Low affinity site, 25 °C",-4.69 ± 0.10 kcal/mol
same,ΔH°,"[3]; Low affinity site, 25 °C",-7.58 ± 0.96 kcal/mol
same,TΔS°,"[3]; Low affinity site, 30 °C",-5.39 ± 0.35 kcal/mol
same,ΔG°,"[3]; Low affinity site, 30 °C",-4.35 ± 0.02 kcal/mol
same,ΔH°,"[3]; Low affinity site, 30 °C",-9.74 ± 0.34 kcal/mol
same,TΔS°,"[3]; Low affinity site, 37 °C",-6.69 ± 0.36 kcal/mol
same,ΔG°,"[3]; Low affinity site, 37 °C",-4.41 ± 0.03 kcal/mol
same,ΔH°,"[3]; Low affinity site, 37 °C",-11.11 ± 0.69 kcal/mol
same,K b (order of magnitude),[3]; high affinity site,~10^4
same,ΔCP (change in heat capacity),[3]; high affinity site,−0.14±0.11 kcal mol^−1°C^−1
same,K b (order of magnitude),[3]; low affinity site,~10^3
same,ΔCP (change in heat capacity),[3]; low affinity site,−0.28±0.24 kcal mol^−1°C^−1
same,Tm of first sub-transition of HSA (head drawing C00030),"[4]; HSA:HA 1∶5, HSA 18 µM",57.25±0.01 °C
same,Tm of second sub-transition of HSA (head drawing C00031),"[4]; HSA:HA 1∶5, HSA 18 µM",62.51±0.09 °C
same,Tm of third sub-transition of HSA (head drawing C00032),"[4]; HSA:HA 1∶5, HSA 18 µM",73.87±0.04 °C
same,ΔH° of first sub-transition (head drawing C00033),"[4]; HSA:HA 1∶5, HSA 18 µM",54.41 ± 0.10 kcal/mol
same,ΔH° of second sub-transition (head drawing C00034),"[4]; HSA:HA 1∶5, HSA 18 µM",56.13 ± 0.12 kcal/mol
same,ΔH° of third sub-transition (head drawing C00035),"[4]; HSA:HA 1∶5, HSA 18 µM",13.92 ± 0.07 kcal/mol
same,Tm of first sub-transition of HSA (head drawing C00030),"[4]; HSA:HA 1∶10, HSA 18 µM",58.36±0.08 °C
same,Tm of second sub-transition of HSA (head drawing C00031),"[4]; HSA:HA 1∶10, HSA 18 µM",63.83±0.02 °C
same,Tm of third sub-transition of HSA (head drawing C00032),"[4]; HSA:HA 1∶10, HSA 18 µM",73.96±0.03 °C
same,ΔH° of first sub-transition (head drawing C00033),"[4]; HSA:HA 1∶10, HSA 18 µM",68.47 ± 0.80 kcal/mol
same,ΔH° of second sub-transition (head drawing C00034),"[4]; HSA:HA 1∶10, HSA 18 µM",57.37 ± 0.60 kcal/mol
same,ΔH° of third sub-transition (head drawing C00035),"[4]; HSA:HA 1∶10, HSA 18 µM",13.90 ± 0.09 kcal/mol
same,Vmax for hydrolysis of p-NPA by HSA,"[5]; HSA:HA 1∶0.5, HSA 15 µM, 25 °C",0.16 ± 0.02 µM/s
same,Vmax for hydrolysis of p-NPA by HSA,"[5]; HSA:HA 1∶1, HSA 15 µM, 25 °C",0.16 ± 0.01 µM/s
same,Vmax for hydrolysis of p-NPA by HSA,"[5]; HSA:HA 1∶2, HSA 15 µM, 25 °C",0.16 ± 0.02 µM/s
same,Vmax for hydrolysis of p-NPA by HSA,"[5]; HSA:HA 1∶3, HSA 15 µM, 25 °C",0.16 ± 0.01 µM/s
same,Ki,"[5]; competitive, substrate p-NPA, 25 °C, read-out: K i (inhibitor constant) for esterase-like activity of HSA",21.7 µM
same,Mode of inhibition of esterase-like activity of HSA,[5]; substrate p-NPA,competitively
same,concentration of HA,[6]; healthy individual,less than 5 mg/L
same,concentration of HA,[6]; patients with end-stage renal disease,higher than 247±112 mg/L
same,elimination of HA through hemodialysis,[7],64%
